# Test results published in patent publication US12240862B2, “Inhibitors of peptidylarginine deiminases” (Gilead Sciences, Inc., priority 2020, dated 2025).
# Target: T1, human PAD4 (Homo sapiens, UniProt Q9UM07)
# T1 construct: human PAD4 (NM_012387), A2P663, was PCR amplified; His-SUMO (N, cleaved yes); made in house; host or cells: E. coli BL21(DE3)
# Experiment: In vitro PAD4 BAEE biochemical assay
# Details: human PAD4, BAEE substrate; 5 nM PAD4, 2 mM calcium chloride, 3 mM BAEE; geometric mean of multiple experiments
# Method in brief: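 Ammonia generated from BAEE serves as the readout, measured by o-phthalaldehyde after EDTA termination. Final conditions: 5 nM human PAD4 (SUMO tag cleaved), 2 mM CaCl2, 3 mM BAEE, pH 7.6 MOPS buffer, 25 °C for 2 h following a 30-min compound preincubation.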
# T1 sequence (Q9UM07 2-663): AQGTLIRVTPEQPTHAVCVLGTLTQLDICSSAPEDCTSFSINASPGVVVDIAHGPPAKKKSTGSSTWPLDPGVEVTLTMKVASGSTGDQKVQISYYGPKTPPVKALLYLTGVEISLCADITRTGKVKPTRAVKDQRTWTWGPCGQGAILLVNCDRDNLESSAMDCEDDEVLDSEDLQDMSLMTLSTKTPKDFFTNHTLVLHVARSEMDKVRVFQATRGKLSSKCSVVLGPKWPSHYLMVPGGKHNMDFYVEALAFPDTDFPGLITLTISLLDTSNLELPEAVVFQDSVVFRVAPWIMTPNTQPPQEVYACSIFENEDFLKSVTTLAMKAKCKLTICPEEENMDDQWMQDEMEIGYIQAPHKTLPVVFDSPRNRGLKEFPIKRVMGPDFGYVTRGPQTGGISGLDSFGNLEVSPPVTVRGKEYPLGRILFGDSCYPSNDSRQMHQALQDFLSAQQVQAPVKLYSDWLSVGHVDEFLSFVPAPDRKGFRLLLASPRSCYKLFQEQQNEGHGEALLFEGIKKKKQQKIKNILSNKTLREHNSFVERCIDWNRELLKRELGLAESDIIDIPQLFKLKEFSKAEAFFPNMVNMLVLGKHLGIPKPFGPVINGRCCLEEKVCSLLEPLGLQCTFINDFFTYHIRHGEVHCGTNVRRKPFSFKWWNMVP
row,SMILES,IC50
1,"CCc1c(-c2cc3ccc(N(C(F)F)S(C)(=O)=O)nc3n2CC2CC2)nc2cc(C(=O)N3CCC[C@@H](N)C3)cc(OC)n12 [Example 399, ~{N}-[2-[7-[(3~{R})-3-aminopiperidine-1-carbonyl]-3-ethyl-5-methoxyimidazo[1,2-a]pyridin-2-yl]-1-(cyclopropylmethyl)pyrrolo [2,3-b]pyridin-6-yl]-~{N}-(difluoromethyl) methanesulfonamide]",0.285 µM
2,"Cc1c(-c2cc3ccc(N(C(F)F)S(C)(=O)=O)nc3n2CC2CC2)nc2cc(C(=O)N3[C@@H]4CC[C@@H](N)[C@H]3CC4)ccn12 [Example 401, ~{N}-[2-[7-[(1~{R},2~{R}, 5~{R})-2-amino-8-azabicyclo[3.2.1]octane-8-carbonyl]-3-methylimidazo [1,2-a]pyridin-2-yl]-1-(cyclopropylmethyl)pyrrolo [2,3-b]pyridin-6-yl]-~{N}-(difluoromethyl) methanesulfonamide]",0.136 µM
3,"COc1cc(C(=O)N2[C@@H]3CC[C@@H](N)[C@H]2CC3)cc2nc(-c3cc4ccc(N(C(F)F)S(C)(=O)=O)nc4n3CC3CC3)c(CC3CC3)n12 [Example 403, ~{N}-[2-[7-[(1~{R},2~{R}, 5~{R})-2-amino-8-azabicyclo[3.2.1]octane-8-carbonyl]-3-(cyclopropylmethyl)-5-methoxyimidazo [1,2-a]pyridin-2-yl]-1-(cyclopropylmethyl)pyrrolo [2,3-b]pyridin-6-yl]-~{N}-(difluoromethyl) methanesulfonamide]",0.754 µM
4,"CCc1c(-c2cc3ccc(N(C(F)F)S(C)(=O)=O)nc3n2CC2CC2)nc2cc(C(=O)N3CC[C@H](O)[C@H](N)C3)cc(OC)n12 [Example 404, ~{N}-[2-[7-[(3~{R},4~{S})-3-amino-4-hydroxypiperidine-1-carbonyl]-3-ethyl-5-methoxyimidazo[1,2-a]pyridin-2-yl]-1-(cyclopropylmethyl)pyrrolo [2,3-b]pyridin-6-yl]-~{N}-(difluoromethyl) methanesulfonamide]",10.6 µM
5,"COc1cc(C(=O)N2C[C@H](N)CC[C@@H]2C)cc2nc(-c3cc4ccc(N(C(F)F)S(C)(=O)=O)nc4n3CC3CC3)c(CC3CC3)n12 [Example 405, ~{N}-[2-[7-[(2~{S},5~{R})-5-amino-2-methylpiperidine-1-carbonyl]-3-(cyclopropylmethyl)-5-methoxyimidazo[1,2-a]pyridin-2-yl]-1-(cyclopropylmethyl)pyrrolo [2,3-b]pyridin-6-yl]-~{N}-(difluoromethyl) methanesulfonamide]",0.589 µM
6,"COc1cc(C(=O)N2[C@@H]3CC[C@@H](N)[C@H]2CC3)cc2nc(-c3cc4ccc(N(C(F)F)S(C)(=O)=O)nc4n3CC3CC3)c(C)n12 [Example 407, ~{N}-[2-[7-[(1~{R},2~{R}, 5~{R})-2-amino-8-azabicyclo[3.2.1]octane-8-carbonyl]-5-methoxy-3-methylimidazo[1,2-a]pyridin-2-yl]-1-(cyclopropylmethyl)pyrrolo [2,3-b]pyridin-6-yl]-~{N}-(difluoromethyl) methanesulfonamide]",0.129 µM
7,"COc1cc(C(=O)N2[C@@H]3CC[C@@H](N)[C@H]2CC3)cc2nc(-c3cc4ccc(N(C(F)F)S(C)(=O)=O)nc4n3CC3CC3)c(C)n12 [Example 410, ~{N}-[2-[7-[(1~{R},2~{R}, 5~{R})-2-amino-8-azabicyclo[3.2.1]octane-8-carbonyl]-5-methoxy-3-methylimidazo[1,2-a]pyridin-2-yl]-1-(cyclopropylmethyl)pyrrolo [2,3-b]pyridin-6-yl]-~{N}-(difluoromethyl) methanesulfonamide]",0.233 µM
8,"COc1cc(C(=O)N2CCC[C@@H](N)[C@H]2C)cc2nc(-c3cc4ccc(N(C(F)F)S(C)(=O)=O)nc4n3CC3CC3)c(C)n12 [Example 411, ~{N}-[2-[7-[(2~{R},3~{R})-3-amino-2-methylpiperidine-1-carbonyl]-5-methoxy-3-methylimidazo[1,2-a]pyridin-2-yl]-1-(cyclopropylmethyl)pyrrolo [2,3-b]pyridin-6-yl]-~{N}-(difluoromethyl) methanesulfonamide]",0.143 µM

# Continued by falling IC50, values first:
row,IC50,SMILES
1,3.02 µM,"COc1cc(C(=O)N2[C@H]3CC[C@H](N)[C@@H]2CC3)cc2nc(-c3cc4ccc(N(C(F)F)S(C)(=O)=O)nc4n3CC3CC3)c(C)n12 [Example 408, ~{N}-[2-[7-[(1~{S},2~{S}, 5~{S})-2-amino-8-azabicyclo[3.2.1]octane-8-carbonyl]-5-methoxy-3-methylimidazo[1,2-a]pyridin-2-yl]-1-(cyclopropylmethyl)pyrrolo [2,3-b]pyridin-6-yl]-~{N}-(difluoromethyl) methanesulfonamide]"
2,1.17 µM,"C[C@H]1CC[C@@H](N)CN1C(=O)c1ccn2c(C(F)F)c(-c3cc4ccc(N(C(F)F)S(C)(=O)=O)nc4n3CC3CC3)nc2c1 [Example 409, ~{N}-[2-[7-[(2~{S},5~{R})-5-amino-2-methylpiperidine-1-carbonyl]-3-(difluoromethyl)imidazo [1,2-a]pyridin-2-yl]-1-(cyclopropylmethyl)pyrrolo [2,3-b]pyridin-6-yl]-~{N}-(difluoromethyl) methanesulfonamide]"
3,0.253 µM,"COc1cc(C(=O)N2CCC[C@@H](N)C2)cc2nc(-c3cc4ccc(N(C(F)F)S(=O)(=O)C5CC5)nc4n3CC3CC3)c(C)n12 [Example 413, ~{N}-[2-[7-[(3~{R})-3-aminopiperidine-1-carbonyl]-5-methoxy-3-methylimidazo [1,2-a]pyridin-2-yl]-1-(cyclopropylmethyl)pyrrolo [2,3-b]pyridin-6-yl]-~{N}-(difluoromethyl) cyclopropanesulfonamide]"
4,0.203 µM,"Cc1c(-c2cc3ccc(N(C(F)F)S(C)(=O)=O)nc3n2CC2CC2)nc2cc(C(=O)N3C[C@H](N)CC[C@@H]3C)ccn12 [Example 402, ~{N}-[2-[7-[(2~{S},5~{R})-5-amino-2-methylpiperidine-1-carbonyl]-3-methylimidazo[1,2-a]pyridin-2-yl]-1-(cyclopropylmethyl)pyrrolo [2,3-b]pyridin-6-yl]-~{N}-(difluoromethyl) methanesulfonamide]"
5,0.194 µM,"CCc1c(-c2cc3ccc(N(C(F)F)S(C)(=O)=O)nc3n2CC2CC2)nc2cc(C(=O)N3C[C@H](N)CC[C@@H]3C)ccn12 [Example 406, ~{N}-[2-[7-[(2~{S},5~{R})-5-amino-2-methylpiperidine-1-carbonyl]-3-ethylimidazo [1,2-a]pyridin-2-yl]-1-(cyclopropylmethyl)pyrrolo [2,3-b]pyridin-6-yl]-~{N}-(difluoromethyl) methanesulfonamide]"
6,0.156 µM,"COc1cc(C(=O)N2C[C@H](N)CC[C@@H]2C)cc2nc(-c3cc4ccc(N(C(F)F)S(C)(=O)=O)nc4n3CC3CC3)c(C)n12 [Example 412, ~{N}-[2-[7-[(2~{S},5~{R})-5-amino-2-methylpiperidine-1-carbonyl]-5-methoxy-3-methylimidazo [1,2-a]pyridin-2-yl]-1-(cyclopropylmethyl)pyrrolo-[2,3b]pyridin-6-yl]-~{N}-(difluoromethyl) methanesulfonamide]"
7,0.0607 µM,"CS(=O)(=O)N(c1ccc2cc(-c3nc4cc(C(=O)N5CCC[C@@H](N)C5)ccn4c3C3CC3)n(CC3CC3)c2n1)C(F)F [Example 398, ~{N}-[2-[7-[(3~{R})-3-aminopiperidine-1-carbonyl]-3-cyclopropylimidazo[1,2-a]pyridin-2-yl]-1-(cyclopropylmethyl)pyrrolo [2,3-b]pyridin-6-yl]-~{N}-(difluoromethyl) methanesulfonamide]"
